Test results from patent publication US5596002A, “Method of treating chloroquine-resistant malaria with aminoquinoline derivatives” (Hoffmann-La Roche Inc., priority 1993, dated 1997).
Converted amounts (≈) assume the structure as drawn. Read-outs that look alike come from different tables or passages of the source.

Key:
[1] = tested on: Plasmodium falciparum, chloroquine-resistant strain K1; assay: activity against P. falciparum in vitro, strain K1; assay type: cell-based; conditions: Plasmodium falciparum; chloroquine-resistant strain K1; 48 h-72 h; read-out: IC50 (50% growth inhibition)
Method: (§1) Test method for the determination of the activity against P. falciparum in vitro
(§2) The preparations of the present invention were tested on intraerythrocytary stages of P. falciparum from asynchronous cultures according to the method of Desjardin et al. (Desjardins, R. E. et al: Quantitative assessment of antimalarial activity in vitro by a semiautomated microdilution technique. Antimicrob. Agents Chemother. 16, 710-718, (1979)).
(§3) The culture medium consisted of RPMI 1640 with the addition of 25 mM HEPES, 25 mM NaHCO3, […] neomycin and 10% human serum (A^+). Human-A^+ erythrocytes were used as the P. falciparum host cells. The parasites were maintained at 37° C. in an atmosphere of 3% O2, 4% CO2, 93% N2 and at 95% relative humidity.
(§4) In order to determine the activity, the preparations were dissolved in DMSO, pre-diluted in the culture medium to a suitable starting concentration and subsequently titrated-out into microtitre plates in the 2nd stage over 6-7 steps. After the addition of the parasite culture (0.7% parasitemia in 2.5% erythrocyte suspension), the test plates were incubated under the conditions given above for 48 h-72 h. The parasite growth in the different preparation concentrations was determined using [G-^3 H]-hypoxanthin incorporation compared to untreated control cultures on the same test plates. The 50% growth inhibition (IC50) was calculated according to logit regression analysis from the resulting dosage-activity curve.
(§5) The preparations were tested on at least one chloroquine-resistant and one chloroquine-sensitive P. falciparum strain. Additional sensitive and resistant strains were also included for further characterization.
(§6) Table 1 below contains the IC50 values measured in vitro for the growth inhibition of chloroquine-sensitive and chloroquine-resistant strains of the human pathogenic Plasmodium falciparum.

[2] = tested on: Plasmodium falciparum, chloroquine-resistant strain RFCR3; assay: activity against P. falciparum in vitro, strain RFCR3; assay type: cell-based; conditions: chloroquine-resistant strain RFCR3, 48 h-72 h, read-out: IC50 (50% growth inhibition)
Method: as §1, §2, §3, §4, §5, §6

[3] = tested on: Plasmodium falciparum, chloroquine-sensitive strain Ro7 3; assay: activity against P. falciparum in vitro, strain Ro7 3; assay type: cell-based; conditions: chloroquine-sensitive strain Ro7 3, 48 h-72 h, read-out: IC50 (50% growth inhibition)
Method: as §1, §2, §3, §4, §5, §6

[4] = tested on: Plasmodium falciparum, chloroquine-resistant strain ItG2 F6; assay: activity against P. falciparum in vitro, strain ItG2 F6; assay type: cell-based; conditions: chloroquine-resistant strain ItG2 F6, 48 h-72 h, read-out: IC50 (50% growth inhibition)
Method: as §1, §2, §3, §4, §5, §6

[5] = tested on: Plasmodium falciparum, chloroquine-resistant strain W2 Mef; assay: activity against P. falciparum in vitro, strain W2 Mef; assay type: cell-based; conditions: 48 h-72 h, read-out: IC50 (50% growth inhibition)
Method: as §1, §2, §3, §4, §5, §6

[6] = tested on: Plasmodium falciparum, chloroquine-sensitive strain HB3; assay: activity against P. falciparum in vitro, strain HB3; assay type: cell-based; conditions: chloroquine-sensitive strain HB3, 48 h-72 h, read-out: IC50 (50% growth inhibition)
Method: as §1, §2, §3, §4, §5, §6

[7] = tested on: Plasmodium falciparum, chloroquine-sensitive strain FCH5C2; assay: activity against P. falciparum in vitro, strain FCH5C2; assay type: cell-based; conditions: chloroquine-sensitive strain FCH5C2, 48 h-72 h, read-out: IC50 (50% growth inhibition)
Method: as §1, §2, §3, §4, §5, §6

[8] = tested on: Plasmodium falciparum, chloroquine-sensitive strain RFMEF3; assay: activity against P. falciparum in vitro, strain RFMEF3; assay type: cell-based; conditions: chloroquine-sensitive strain RFMEF3, 48 h-72 h, read-out: IC50 (50% growth inhibition)
Method: as §1, §2, §3, §4, §5, §6

[9] = tested on: Plasmodium falciparum, chloroquine-resistant strain W2; assay: activity against P. falciparum in vitro, strain W2; assay type: cell-based; conditions: chloroquine-resistant strain W2, 48 h-72 h, read-out: IC50 (50% growth inhibition)
Method: as §1, §2, §3, §4, §5, §6

[10] = tested on: Plasmodium falciparum, chloroquine-resistant strain Indo; assay: activity against P. falciparum in vitro, strain Indo; assay type: cell-based; conditions: chloroquine-resistant strain Indo, 48 h-72 h, read-out: IC50 (50% growth inhibition)
Method: as §1, §2, §3, §4, §5, §6

[11] = tested on: Plasmodium berghei (strain ANKA); assay: activity against Plasmodium berghei in vivo (infected mice); conditions: mice; for ED50: single administration po, dose reducing average erythrocyte infection rate by 50%, read-out: ED50 (po); for inhibition in vivo at 10 mg/kg: 48 hours after treatment (D+3)
Method: Test method for the determination of the activity against Plasmodium berghei in vivo
The preparations according to the present invention were tested on mice infected with malaria pathogens (Plasmodium berghei). Male albino mice (IBM:MORO(SPF), FUELLINSDORF) weighing about 25 g were used as the test animals. They were kept in climatized rooms at 21°-22° C. in groups of 5 animals per cage. They received ad libitum a diet feed with a low PABA content ("NAFAG FUTTER" No. 9009 PAB-45, PABA content 45 mg/kg) and drinking water. On the first day of the test (D0) the test animals were infected with Plasmodium berghei (strain ANKA). For this there was used heparinized blood of a donor mouse with about 30% parasitemia, which was diluted with physiological saline such that it contains 10^8 parasitized erythrocytes per ml. 0.2 ml of this suspension was injected intravenously (i.v.) into the mice to be treated and into the control mice. In untreated control animals the parasitemia normally reaches 30-40% on the third day after the infection (D+3) and the test animals die between days +5 and +7.
The substances to be tested were dissolved or suspended in distilled water or in a mixture of 7% Tween 80, 3% alcohol (96%) and water. Usually, 0.25 ml of this solution or suspension was administered once subcutaneously and perorally to groups of 5 test animals. Treatment was effected 24 hours after the infection. 10 control animals were treated in the same manner with solvent or suspension medium per test.
All substances were tested in a first test in a single dosage of 10 mg/kg. Only those substances which in this test (10 mg/kg) had shown a parasitaemia reduction of 90% were used for the titration.
48 hours after the treatment (D+3), blood smears were prepared from all animals using blood from tail veins and were stained with Giemsa. The average erythrocyte infection rate (parasitemia in %) in the control groups as well as in the groups which had been treated with the test compounds was determined by counting under a microscope. The difference in the average values of the infection rates of control group (100%) and treated groups was calculated and expressed as a percentage reduction (GI %). The ED50 or ED90 was determined mathematically by means of the JMP programme (nonlinear fit). The ED50 (ED90) in mg/kg is that dose which after single administration reduces the average erythrocyte infection rate by 50% (90%) in comparison to the control group.
Table 2 below contains data with respect to the activity measured against Plasmodium berghei in mice: GI % is the percentage reduction in the parasitemia after a single dose of 10 mg/kg of the test substance administered perorally (po) or subcutaneously (sc); ED50 and ED90 are the effective doses of the test substance administered perorally or subcutaneously.

[12] = tested on: Plasmodium falciparum, chloroquine-sensitive strain NF54; assay: activity against P. falciparum in vitro, strain NF54; assay type: cell-based; conditions: Plasmodium falciparum; chloroquine-sensitive strain NF54; 48 h-72 h; read-out: IC50 (50% growth inhibition)
Method: as §1, §2, §3, §4, §5, §6

[13] = tested on: Plasmodium falciparum, chloroquine-resistant strain 7G8; assay: activity against P. falciparum in vitro, strain 7G8; assay type: cell-based; conditions: chloroquine-resistant strain 7G8, 48 h-72 h, read-out: IC50 (50% growth inhibition)
Method: as §1, §2, §3, §4, §5, §6

[14] = single dose 10 mg/kg po, read-out: GI % at 10 mg/kg (po): percentage reduction in the parasitemia
[15] = single dose 10 mg/kg sc, read-out: GI % at 10 mg/kg (sc): percentage reduction in the parasitemia

SMILES | IC50 [1] | IC50 [2] | IC50 [3] | IC50 [4] | IC50 [5] | IC50 [6] | IC50 [7] | IC50 [8] | IC50 [9] | IC50 [10] | ED50 [11] | inhibition in vivo at 10 mg/kg [11, 14] | inhibition in vivo at 10 mg/kg [11, 15] | IC50 [12] | IC50 [13]
CC(CN(C)C)Nc1ccnc2cc(Cl)ccc12 (racemic) [Example 1, (RS)-N2-(7-Chloro-quinolin-4-yl)-N1,N1-dimethyl-propane-1,2-diamine] | 9 ng/mL (≈ 0.0341 µM) | 15 ng/mL (≈ 0.0569 µM) | 5 ng/mL (≈ 0.019 µM) | 4 ng/mL (≈ 0.0152 µM) | 7 ng/mL (≈ 0.0265 µM) | 7 ng/mL (≈ 0.0265 µM) | 8 ng/mL (≈ 0.0303 µM) | 7 ng/mL (≈ 0.0265 µM) | 9 ng/mL (≈ 0.0341 µM) | 8 ng/mL (≈ 0.0303 µM) | 2.3 mg/kg | 99.9% | 99.9% | 4 ng/mL (≈ 0.0152 µM) | 9 ng/mL (≈ 0.0341 µM)
CCN(CC)CC(C)Nc1ccnc2cc(Cl)ccc12 (racemic) [Example 2, (RS)-N2-(7-Chloro-quinolin-4-yl)-N1,N1-diethyl-propane-1,2-diamine] | 14 ng/mL (≈ 0.048 µM) | 8 ng/mL (≈ 0.0274 µM) | 6 ng/mL (≈ 0.0206 µM) | 5 ng/mL (≈ 0.0171 µM) | 9 ng/mL (≈ 0.0308 µM) | 7 ng/mL (≈ 0.024 µM) | 7 ng/mL (≈ 0.024 µM) | 7 ng/mL (≈ 0.024 µM) | 8 ng/mL (≈ 0.0274 µM) | 6 ng/mL (≈ 0.0206 µM) | 3.2 mg/kg | 99.8% | 99.9% | 7 ng/mL (≈ 0.024 µM) | 8 ng/mL (≈ 0.0274 µM)
CCN(CC)[C@@H]1CCCC[C@H]1Nc1ccnc2cc(Cl)ccc12 (racemic) [Example 9, (1RS,2RS)-N1-(7-Chloro-quinolin-4-yl)-N2,N2-diethyl-cyclohexane-1,2-diamine] | 32 ng/mL (≈ 0.0964 µM) | 17 ng/mL (≈ 0.0512 µM) | 11 ng/mL (≈ 0.0331 µM) | 17 ng/mL (≈ 0.0512 µM) | 25 ng/mL (≈ 0.0753 µM) | 14 ng/mL (≈ 0.0422 µM) | 15 ng/mL (≈ 0.0452 µM) | 12 ng/mL (≈ 0.0362 µM) | 31 ng/mL (≈ 0.0934 µM) | 18 ng/mL (≈ 0.0542 µM) | 4.4 mg/kg | 99% | 99.6% | 11 ng/mL (≈ 0.0331 µM) | 30 ng/mL (≈ 0.0904 µM)
Clc1ccc2c(N[C@@H]3CCCC[C@H]3N3CCCC3)ccnc2c1 (racemic) [Example 10, (1RS,2RS)-(7-Chloro-quinolin-4-yl)-(2pyrrolidin-1-yl-cyclohexyl)-amine] | 17 ng/mL (≈ 0.0515 µM) | 18 ng/mL (≈ 0.0546 µM) | 7 ng/mL (≈ 0.0212 µM) | 7 ng/mL (≈ 0.0212 µM) | 15 ng/mL (≈ 0.0455 µM) | 8 ng/mL (≈ 0.0243 µM) | 5 ng/mL (≈ 0.0152 µM) | 6 ng/mL (≈ 0.0182 µM) | 13 ng/mL (≈ 0.0394 µM) | 16 ng/mL (≈ 0.0485 µM) | 6.4 mg/kg | 99% | 99% | 7 ng/mL (≈ 0.0212 µM) | 15 ng/mL (≈ 0.0455 µM)
